The text below walks through data of article PMC12751141, “Disrupting α-Synuclein–ClpP interaction restores mitochondrial function and attenuates neuropathology in Parkinson’s disease models” (Molecular Neurodegeneration, 2025).

SMILES strings stand for the structures.

The test system of assay [1] is ClpP–αSyn interaction. Description: Co-immunoprecipitation of ClpP with αSyn constructs in HEK293T cell lysates. In kind it is cell-based. Conditions: HEK293T lysates. The procedure: Myc-tagged WT- and A53T- αSyn, Myc-tagged ClpP, and Flag-tagged WT- and S153A- ClpP plasmids were self-constructed as previously described (Ref). To construct truncated-αSyn plasmids, pcDNA3.1(-) was digested with BsteII and XbaI, and ΔN-, ΔC- and ΔNAC-αSyn was PCR-amplified using self-designed primers and inserted into the plasmid backbone. Cells were transfected with TransIT-2020 (Mirus Bio, LLC) following the manufacturer’s protocol.
Cells or tissues were lysed in total lysis buffer (50mM Tris-HCl, pH 7.5, 150mM NaCl, 1% Triton X-100, and protease inhibitor). Total protein lysates (800 µg) were incubated with the indicated antibodies overnight at 4 °C followed by the addition of protein A/G beads (sc-2003, Santa Cruz) for 2 h at 4 °C. Various recombinant αSyn and Clpp (500 ng) were incubated in in vitro interaction buffer (20mM Tris-HCl pH 7.5, 100mM KCl, 2mM MgCl2 and 0.1% Triton-X100) for 30 min at room temperature, and then incubated with indicated antibodies overnight at 4 °C followed by the addition of protein A/G beads for 2 h at 4 °C. The beads with immuno-precipitates were pulled down at 4000 g and washed four times with total lysis buffer/in vitro interaction buffer in the presence of 0.1% Triton X-100 and were analyzed by western blot analysis.
Shown are representative blots of 3 independent experiments. Quantification of the ratio of αSyn over ClpP (pull-down) (n = 4, two-tailed Student’s t test, data are mean ± SEM).

The test system of assay [2] is mThy1-hSNCA mice (substantia nigra / midbrain). Briefly: Brain immunostaining / immunohistochemistry in mThy1-hSNCA mice. In kind it is in vivo, mouse. The settings on record: 3 mg/kg/day s.c. The procedure:
C57BL/6 N-Tg (Thy1-SNCA)15Mjff/J (JAX: 017682) breeders (C57Bl/6NJ genetic background) were purchased from Jackson Laboratories. The mice were mated, bred, and genotyped in the animal facility of Case Western Reserve University. All mice were maintained at a 12-hour light/dark cycle (on 6 am, off 6 pm). All randomization and peptide treatments in mThy1-hSNCA mice were prepared by an experimenter not associated with the behavioral and neuropathology analysis. Only male mice were used in the study. mThy1-hSNCA transgenic mice and their age-matched WT littermates were implanted with a 28-day subcutaneous osmotic pump (Alzet, Cupertino CA, Model 2004) containing either TAT control peptide or CS2 peptide, which delivered the peptides at indicated rate (1 or 3 or 10 mg/kg/day). The pump was replaced once every four weeks. All mice were sacrificed at age of 10-month for neuropathology assessment.
For immunofluorescence staining of mouse brain sections, mice were deeply anesthetized and transcardially perfused with 4% paraformaldehyde in PBS. Brain sections were washed in PBS 3 times and subjected for antigen retrieval in 0.01 M sodium citrate buffer with 0.05% TWEEN-20, followed by permeation with 0.2% Triton X-100 in PBS at room temperature for 10 min. Sections were then blocked with 10% normal goat serum in PBS and incubated with primary antibodies overnight at 4 °C and then stained with secondary antibodies. Images of the staining were acquired using Fluoview (FV3000) confocal microscope (Olympus).
Frozen brain sections (20 μm, coronal) were washed in PBS 3 times and subjected for antigen retrieval in 0.01 M sodium citrate buffer with 0.05% TWEEN-20. After washing 3 times in TBS, sections were then incubated in 3%H2O2/w methanol for 30 min at room temperature to quench endogenous peroxidase. After washing in TBS, sections were blocked in 10% normal goat serum with 1XTBST for one hour at room temperature and incubated with anti-pS129-αSyn (ab51253, clone EP1536Y, abcam) or anti- αSyn aggregates (MABN389, clone 5G4, Millipore) antibody in TBST overnight. Secondary antibody and DAB staining were provided by the IHC Select HRP/DAB kit (DAB150, Millipore). Hematoxylin QS (H-3404, Vector laboratory) was used to stain nucleus. The intensity of αSyn was conducted using Fiji ImageJ software. The same image exposure times and threshold settings were used for all sections from all treatment groups. Quantitation was performed blinded to the experimental groups.
Fig. 7 CS2 treatment is protective in mThy1-hSNCA mouse model of PD. (A) Experimental schematic of CS2 treatment in mThy1-hSNCA (Thy1) mouse model of PD: TAT or CS2 peptide was administered (3 mg/kg/day) via subcutaneous osmotic pump (O.P.) in Thy1 mice and their wild-type (WT) littermates starting from age of 4-month till 10-month. […] (D) Representative images of pS129-αSyn staining in substantia nigra of WT and Thy1 mice treated with TAT or CS2 peptide (scale bar = 100 μm). […] (G) Representative images of ClpP and tyrosine […] (TH) staining on the brain coronal sections from TAT or CS2-treated Thy1 mice and their WT littermates (scale bar = 100 μm). […] (H) Representative images of IBA1 and GFAP staining in the midbrain of TAT or CS2 treated Thy1 mice and their WT littermates (SN: substantia nigra) (scale bar = 180 μm).
(B) Representative images of αSyn aggregates staining (5G4) in substantia nigra of TAT or CS2 treated Thy1 mice (scale bar = 40µm).

Where [3] appears, read: midbrain, mThy1-hSNCA, n = 3 mice/group.

In the case of `CC(C)[C@H](NC(=O)CNC(=O)CNC(=O)CCCCCNC(=O)[C@H](CCCNC(=N)N)NC(=O)[C@H](CCCNC(=N)N)NC(=O)[C@H](CCCNC(=N)N)NC(=O)[C@H](CCC(N)=O)NC(=O)[C@H](CCCNC(=N)N)NC(=O)[C@H](CCCNC(=N)N)NC(=O)[C@H](CCCCN)NC(=O)[C@H](CCCCN)NC(=O)[C@H](CCCNC(=N)N)NC(=O)CNC(=O)[C@@H](N)Cc1ccc(O)cc1)C(=O)N[C@H](C(=O)N[C@H](C(=O)N[C@@H](C)C(=O)O)[C@@H](C)O)C(C)C` [CS2, TAT-C6-GGVVTA], the “ClpP binding to ΔC-αSyn” value in assay [1] (Flag-ClpP + Myc-ΔC-αSyn) was “abolished”. Moreover, the “ClpP binding to ΔN-αSyn” value in assay [1] (Flag-ClpP + Myc-ΔN-αSyn) is on record as “abolished”. Further, in assay [1] (WT αSyn, CS2: 24-hour treatment), the “ClpP binding to WT-αSyn” value is on record as “abolished”. The “ClpP level in midbrain DA neurons” value in assay [2] (TH+ neurons, immunostaining, n = 3 mice/group) is on record as “restored by CS2”. Also, the “IBA1 and GFAP in WT mice” value in assay [2] (WT mice) was “no effect in WT mice”. In addition, in assay [2] (setting [3]), the “GFAP (astrocyte) intensity” value was “significantly attenuated both markers” and the “IBA1 (microglia) intensity” value is “significantly attenuated both markers”. Also, in assay [2] (n = 3 mice/group), the “pS129-αSyn accumulation in SN” value is “reduced by CS2 treatment” and the “αSyn aggregates in SN (5G4)” value is on record as “reduced by CS2 treatment”.
